pIC50: −log10 of the molar value. Where two headings read alike, the source gives them in different places.
Assays:
[1] = system: HCT116 isogenic IDH1-R132H mutant cells; assay: Cellular 2-HG assay using HCT116 mutant IDH1 cells (R132H), RapidFire mass spectrometry; format: cell-based; conditions: Homo sapiens, read-out: HCT116 IDH1 R132H IC50 (Range)
Method: (§1) Example 106—Cellular 2-HG assay using HCT116 mutant IDH1 cells
(§2) HCT116 isogenic IDH1-R132H and IDH1-R132C mutant cells were cultured in growth media (McCoy's 5 A, 10% fetal bovine serum, 1× antibiotic-antimycotic solution and 0.3 mg/mL G418) in 5% CO2 in an incubator at 37° C. To prepare the assay, cells were trypsinized and resuspended in assay media (McCoy's 5 A with no L-glutamine, 10% fetal bovine serum, 1× antibiotic-antimycotic solution and 0.3 mg/mL G418). An aliquot of 10,000 cells/100 μL was transferred to each well of a clear 96-well tissue culture plate. The cells were incubated in 5% CO2 at 37° C. in an incubator overnight to allow for proper cell attachment. An aliquot of 50 μL of compound containing assay media were then added to each well and the assay plate was kept in 5% CO2 at 37° C. in an incubator for 24 hours. The media was then removed from each well and 150 μL of a methanol/water mixture (80/20 v/v) was added to each well. The plates were kept at −80° C. freezer overnight to allow for complete cell lysis. An aliquot of 125 μL of extracted supernatant was analyzed by RapidFire high-throughout-mass spectrometry (Agilent) to determine the cellular 2-HG level. The IC50 of a given compound was calculated by fitting the dose response curve of cellular 2-HG inhibition at a given concentration with the four parameter logistic equation.

[2] = target: IDH1-R132C recombinant protein (Homo sapiens (Human), UniProt O75874, R132C); assay: IDH1-R132C enzymatic assay (inhibition of NADPH consumption, diaphorase/resazurin readout); format: biochemical; conditions: read-out: Enzyme IDH1 R132C IC50 (Range)
In short: (§3)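 Compound was preincubated 15 min at 25 °C with 30 nM IDH1-R132H or 10 nM IDH1-R132C in Tris pH 7.5 buffer with MgCl2, BSA and Triton X-100. Reaction with 2 mM α-ketoglutarate and 20 μM NADPH (solution concentrations) ran 45 min at 25 °C. Remaining NADPH was detected via diaphorase/resazurin fluorescence (ex 535/em 590 nm), and IC50 came from four-parameter fits.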

[3] = system: HCT116 isogenic IDH1-R132C mutant cells; assay: Cellular 2-HG assay using HCT116 mutant IDH1 cells (R132C), RapidFire mass spectrometry; format: cell-based; conditions: Homo sapiens, read-out: HCT116 IDH1 R132C IC50 (Range)
Method: as §1, §2

[4] = target: IDH1-R132H recombinant protein (Homo sapiens (Human), UniProt O75874, R132H); assay: IDH1-R132H enzymatic assay (inhibition of NADPH consumption, diaphorase/resazurin readout); format: biochemical; conditions: read-out: Enzyme IDH1 R132H IC50 (Range)
In short: as §3

[5] = HCT-116, cellular 2-HG level, HCT116 IDH1-R132H cells, 24 hours
[6] = HCT-116, cellular 2-HG level, HCT116 IDH1-R132C cells, 24 hours

Sequence of IDH1-R132C recombinant protein (O75874 whole entry R132C): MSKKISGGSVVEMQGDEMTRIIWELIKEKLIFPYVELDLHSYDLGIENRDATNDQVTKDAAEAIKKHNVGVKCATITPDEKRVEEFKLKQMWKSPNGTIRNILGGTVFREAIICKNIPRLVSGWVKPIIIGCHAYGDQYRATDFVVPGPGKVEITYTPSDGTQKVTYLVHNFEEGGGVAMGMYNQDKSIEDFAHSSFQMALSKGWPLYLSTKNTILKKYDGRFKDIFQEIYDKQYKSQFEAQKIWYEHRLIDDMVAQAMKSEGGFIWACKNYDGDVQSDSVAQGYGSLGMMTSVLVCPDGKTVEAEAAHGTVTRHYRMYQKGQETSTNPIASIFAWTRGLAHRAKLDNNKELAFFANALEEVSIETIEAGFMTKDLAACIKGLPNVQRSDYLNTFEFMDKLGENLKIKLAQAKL
Sequence of IDH1-R132H recombinant protein (O75874 whole entry R132H): as the sequence (O75874 whole entry R132C) above, with C132H counted along it

| pIC50 [1, 5] | pIC50 [2] | pIC50 [3, 6] | pIC50 [4] | SMILES | pIC50 ([1]; HCT-116, 24 h) | pIC50 ([3]; HCT-116, 24 h) |
| --- | --- | --- | --- | --- | --- | --- |
| 6.00 to 7.00 | 6.00 to 7.00 | 6.00 to 7.00 | > 7.00 | C[C@H](Nc1nccc(-c2ccccc2)n1)c1cc2cc(Cl)ccc2[nH]c1=O [Compound I-101] | – | – |
| 6.00 to 7.00 | 5.00 to 6.00 | 5.00 to 6.00 | 6.00 to 7.00 | C[C@H](Nc1nccc([S@@+](C)[O-])n1)c1cc2cc(Cl)ccc2[nH]c1=O [Compound I-112] | – | – |
| > 7.00 | 6.00 to 7.00 | 6.00 to 7.00 | > 7.00 | C[C@H](Nc1nccc([S@+](C)[O-])n1)c1cc2cc(Cl)ccc2[nH]c1=O [Compound I-113] | – | – |
| 6.00 to 7.00 | 6.00 to 7.00 | 6.00 to 7.00 | > 7.00 | C[C@H](Nc1nccc(C(N)=O)n1)c1cc2cc(Cl)ccc2[nH]c1=O [Compound I-114, (S)-2-((1-(6-chloro-2-oxo-1,2-dihydroquinolin-3-yl)ethyl)amino)pyrimidine-4-carboxamide] | – | – |
| 6.00 to 7.00 | 6.00 to 7.00 | 6.00 to 7.00 | 6.00 to 7.00 | CNC(=O)c1ccnc(N[C@@H](C)c2cc3cc(Cl)ccc3[nH]c2=O)n1 [Compound I-115] | – | – |
| 6.00 to 7.00 | 6.00 to 7.00 | 5.00 to 6.00 | 6.00 to 7.00 | CC(C)CNC(=O)c1ccnc(N[C@@H](C)c2cc3cc(Cl)ccc3[nH]c2=O)n1 [Compound I-116] | – | – |
| 6.00 to 7.00 | 6.00 to 7.00 | 6.00 to 7.00 | > 7.00 | C[C@H](Nc1nccc(N2CCNC2=O)n1)c1cc2cc(Cl)ccc2[nH]c1=O [Compound I-123, (S)-6-Chloro-3-(1-((4-(2-oxoimidazolidin-1-yl)pyrimidin-2-yl)amino)ethyl)quinolin-2(1H)-one] | – | – |
| 5.00 to 6.00 | 5.00 to 6.00 | 5.00 to 6.00 | 6.00 to 7.00 | COC(=O)c1ccnc(N[C@@H](C)c2cc3cc(Cl)ccc3[nH]c2=O)n1 [Compound I-129] | – | – |
| > 7.00 | 6.00 to 7.00 | 6.00 to 7.00 | > 7.00 | COc1cc2[nH]c(=O)c(C(C)Nc3nccc(N4CCOC4=O)n3)cc2cc1Cl (stereo not drawn) [Compound I-146] | – | – |
| > 7.00 | > 7.00 | > 7.00 | > 7.00 | CC(=O)Nc1ccnc(NC(C)c2cc3cc(Cl)c(OCc4ccccn4)cc3[nH]c2=O)n1 (stereo not drawn) [Compound I-149] | – | – |
| > 7.00 | > 7.00 | > 7.00 | > 7.00 | COc1nc(N[C@@H](C)c2cc3cc(Cl)c(OCc4ccccn4)cc3[nH]c2=O)ncc1C#N [Compound I-151, (S)-2-((1-(6-Chloro-2-oxo-7-(pyridin-2-ylmethoxy)-1,2-dihydroquinolin-3-yl)ethyl)amino)-4-methoxypyrimidine-5-carbonitrile] | – | – |
| 6.00 to 7.00 | 5.00 to 6.00 | 5.00 to 6.00 | > 7.00 | C[C@H](Nc1ncc(C#N)c(O)n1)c1cc2cc(Cl)c(OCc3ccccn3)cc2[nH]c1=O [Compound I-152, (S)-2-((1-(6-chloro-2-oxo-7-(pyridin-2-ylmethoxy)-1,2-dihydroquinolin-3-yl)ethyl)amino)-4-hydroxypyrimidine-5-carbonitrile] | – | – |
| > 7.00 | > 7.00 | > 7.00 | > 7.00 | COC(=O)Nc1ccnc(N[C@@H](C)c2cc3cc(Cl)c(OCc4ccccn4)cc3[nH]c2=O)n1 [Compound I-154, (S)-methyl (2-((1-(6-Chloro-2-oxo-7-(pyridin-2-ylmethoxy)-1,2-dihydroquinolin-3-yl)ethyl)amino)pyrimidin-4-yl)carbamate] | – | – |
| 6.00 to 7.00 | 5.00 to 6.00 | 5.00 to 6.00 | > 7.00 | COc1nc(N[C@@H](C)c2cc3cc(Cl)cnc3[nH]c2=O)ncc1C#N [Compound I-155, (S)-2-((1-(6-chloro-2-oxo-1,2-dihydro-1,8-naphthyridin-3-yl)ethyl)amino)-4-methoxy pyrimidine-5-carbonitrile] | – | – |
| > 7.00 | > 7.00 | 6.00 to 7.00 | > 7.00 | COc1nc(N[C@@H](C)c2cc3cc(Cl)c(O[C@H](C)c4ccccn4)cc3[nH]c2=O)ncc1C#N [Compound I-158, 2-(((S)-1-(6-chloro-2-oxo-7-((R)-1-(pyridin-2-yl)ethoxy)-1,2-dihydroquinolin-3-yl)ethyl)amino)-4-methoxypyrimidine-5-carbonitrile] | – | – |
| > 7.00 | > 7.00 | > 7.00 | > 7.00 | COc1nc(N[C@@H](C)c2cc3cc(Cl)c(OCC4CC4)cc3[nH]c2=O)ncc1C#N [Compound I-159, (S)-2-((1-(6-chloro-7-(Cyclopropylmethoxy)-2-oxo-1,2-dihydroquinolin-3-yl)ethyl)amino)-4-methoxypyrimidine-5-carbonitrile] | – | – |
| > 7.00 | > 7.00 | > 7.00 | > 7.00 | CC(=O)Nc1ccnc(N[C@@H](C)c2cc3cc(Cl)cc(F)c3[nH]c2=O)n1 [Compound I-160, (S)—N-(2-((1-(6-Chloro-8-fluoro-2-oxo-1,2-dihydroquinolin-3-yl)ethyl)amino)pyrimidin-4-yl)acetamide] | – | – |
| > 7.00 | 6.00 to 7.00 | 6.00 to 7.00 | > 7.00 | COc1nc(N[C@@H](C)c2cc3cc(Cl)cc(F)c3[nH]c2=O)ncc1C#N [Compound I-161, (S)-2-((1-(6-Chloro-8-fluoro-2-oxo-1,2-dihydroquinolin-3-yl)ethyl)amino)-4-methoxy pyrimidine-5-carbonitrile] | – | – |
| > 7.00 | 6.00 to 7.00 | 6.00 to 7.00 | > 7.00 | COc1nc(N[C@@H](C)c2cc3cc(Cl)c(Br)cc3[nH]c2=O)ncc1C#N [Compound I-162, (S)-2-((1-(7-bromo-6-chloro-2-oxo-1,2-dihydroquinolin-3-yl)ethyl)amino)-4-methoxypyrimidine-5-carbonitrile] | – | – |
| > 7.00 | > 7.00 | > 7.00 | > 7.00 | CC(=O)Nc1ccnc(N[C@@H](C)c2cc3cc(Cl)c(F)cc3[nH]c2=O)n1 [Compound I-179, (S)—N-(2-((1-(6-chloro-7-fluoro-2-oxo-1,2-dihydroquinolin-3-yl)ethyl)amino)pyrimidin-4-yl)acetamide] | – | – |

| SMILES | pIC50 [1, 5] | pIC50 [2] | pIC50 [3, 6] | pIC50 [4] | pIC50 ([1]; HCT-116, 24 h) | pIC50 ([3]; HCT-116, 24 h) |
| --- | --- | --- | --- | --- | --- | --- |
| COc1nc(NC(C)c2cc3cc(Cl)c(F)cc3[nH]c2=O)ncc1C#N (stereo not drawn) [Compound I-142] | – | 6.00 to 7.00 | – | > 7.00 | > 7.00 | 6.00 to 7.00 |
| COc1cc2[nH]c(=O)c([C@H](C)Nc3ncc(C#N)c(OC)n3)cc2cc1Cl [Compound I-143, (S)-2-((1-(6-Chloro-7-methoxy-2-oxo-1,2-dihydroquinolin-3-yl)ethyl)amino)-4-methoxypyrimidine-5-carbonitrile] | – | > 7.00 | – | > 7.00 | > 7.00 | > 7.00 |
| COc1cc2[nH]c(=O)c(C(C)Nc3ncc(C#N)c(OC)n3)cc2cc1Cl (stereo not drawn) [Compound I-145] | – | > 7.00 | – | > 7.00 | > 7.00 | 6.00 to 7.00 |
| COc1nc(N[C@H](C)c2nc3cc(Cl)ccc3[nH]c2=O)ncc1C#N [Compound I-157] | – | 5.00 to 6.00 | – | 6.00 to 7.00 | > 7.00 | 6.00 to 7.00 |

— patent US10280150B2 (FORMA TM2, Inc., priority 2014, dated 2019)
